In US6495571B1, “Pyridine compounds, use and preparation thereof” (Southern Research Institute, priority 1999, dated 2002):
Like-named read-outs stand apart in the source and are kept apart here.

Experiments:
[1] = tested on: cancer; assay: Anti-cancer activity (test not specified)
[2] = tested on: P388/0 murine leukemia; details: Q1D × 1 (1)
[3] = tested on: P388/BCNU (carmustine-resistant) leukemia; assay: Antitumor activity against IP-implanted P388/BCNU leukemia; details: Q1D × 1 (1)
[4] = tested on: P388/CPA (cyclophosphamide-resistant) leukemia; type: in vivo, CD2F1 female mice; details: Q1D × 1 (1)
[5] = tested on: human MX-1 mammary tumor (ic, 10^6 cells); assay: In vivo antitumor activity, i.c.-implanted MX-1 xenograft; details: Days 1-5
[6] = tested on: human MX-1 mammary tumor (sc, 30-40 mg fragments); assay: In vivo antitumor activity, s.c.-implanted MX-1 xenograft; set-up: species or system Athymic mice (Ncr-nu); details: for antitumor activity (in words): MX-1 implanted s.c. or i.c.
[7] = oral (gavage) 135 mg/kg/dose, Days 13-17
[8] = oral (gavage) 135 mg/kg/dose, Days 12-16

Structure (SMILES): CCOc1nc(C(Cl)(Cl)Cl)c(Cl)c(OCC)c1Cl [3,5-dichloro-4,6-diethoxy-2-(trichloromethyl)pyridine]
- anti-cancer activity (in words) [1]: active anti-cancer activity

Structure (SMILES): CCOc1c(Cl)c(OC)nc(C(Cl)(Cl)Cl)c1Cl [3,5-dichloro-4-ethoxy-6-methoxy-2-(trichloromethyl)pyridine]
- anti-cancer activity (in words) [1]: active anti-cancer activity

Structure (SMILES): O=NN(CCCl)C(=O)NCCCl [BCNU (carmustine), carmustine]
- 50-DAY SURV./TOTAL ([2]; IP 20.0 mg/kg/dose): 3/6
- 50-DAY SURV./TOTAL ([2]; IP 30.0 mg/kg/dose): 6/6
- 50-DAY SURV./TOTAL ([3]; IP 20.0 mg/kg/dose): 0/6
- % ILS ([3]; IP 20.0 mg/kg/dose): 0%
- 50-DAY SURV./TOTAL ([3]; IP 30.0 mg/kg/dose): 0/6
- % ILS ([3]; IP 30.0 mg/kg/dose): −6%
- MEDIAN DAY OF DEATH ([3]; IP 30.0 mg/kg/dose): 8.5

Structure (SMILES): O=P1(N(CCCl)CCCl)NCCCO1 (stereo not shown) [CPA (cycloposphamide), cyclophosphamide]
- 50-DAY SURV./TOTAL ([2]; IP 175.0 mg/kg/dose): 1/6
- % ILS ([2]; IP 175.0 mg/kg/dose): +172%
- APPROX. NET LOG10 CHANGE IN TUMOR BURDEN AT END OF Rx ([2]; IP 175.0 mg/kg/dose): ca −6.8
- 50-DAY SURV./TOTAL ([2]; IP 265.0 mg/kg/dose): 6/6
- 50-DAY SURV./TOTAL ([4]; IP 175.0 mg/kg/dose): 0/6
- % ILS ([4]; IP 175.0 mg/kg/dose): +9%
- APPROX. NET LOG10 CHANGE IN TUMOR BURDEN AT END OF Rx ([4]; IP 175.0 mg/kg/dose): −0.6
- 50-DAY SURV./TOTAL ([4]; IP 265.0 mg/kg/dose): 0/6
- % ILS ([4]; IP 265.0 mg/kg/dose): +27%
- APPROX. NET LOG10 CHANGE IN TUMOR BURDEN AT END OF Rx ([4]; IP 265.0 mg/kg/dose): −1.7

Structure (SMILES): COc1nc(C(Cl)(Cl)Cl)c(Cl)c(OC(=O)COC(C)=O)c1Cl [DM-AA-PEN]
- Median % ILS (dying mice only) ([5]; IP 135 mg/kg/dose): +67%
- Tumor-Free-Surv/Total ([5]; IP 135 mg/kg/dose): 0/5
- Median % ILS (dying mice only) ([5]; oral (gavage) 135 mg/kg/dose): +115%
- Tumor-Free-Surv/Total ([5]; oral (gavage) 135 mg/kg/dose): 2/5

Structure (SMILES): C=CC(=O)Oc1c(Cl)c(OC)nc(C(Cl)(Cl)Cl)c1Cl [DM-AC-PEN]
- T-C ([6]; IP 60 mg/kg/dose, Days 12-16): 30.0 days
- Tumor-Free-Surv/Total ([6]; IP 60 mg/kg/dose, Days 12-16): 1/5
- Median % ILS (dying mice only) ([5]; IP 60 mg/kg/dose): +55%
- Tumor-Free-Surv/Total ([5]; IP 60 mg/kg/dose): 0/5

Structure (SMILES): COc1nc(C(Cl)(Cl)Cl)c(Cl)c(OC(=O)c2ccccc2)c1Cl [DM-B-PEN]
- T-C ([6]; IP 135 mg/kg/dose, Days 11-15): >42.7 days
- Tumor-Free-Surv/Total ([6]; IP 135 mg/kg/dose, Days 11-15): 5/5
- antitumor activity (in words) ([6]; i.p. administration): high activity
- antitumor activity (in words) ([6]; oral drug treatment): low antitumor activity
- oral absorption (in words) ([6]; inferred from MX-1 results (s.c. or i.c.), oral treatment): oral absorption was poor
- T-C [6, 7]: -1.4 days
- Tumor-Free-Surv/Total [6, 7]: 0/5
- Median % ILS (dying mice only) ([5]; IP 335 mg/kg/dose): +84%
- Tumor-Free-Surv/Total ([5]; IP 335 mg/kg/dose): 0/5
- Median % ILS (dying mice only) ([5]; oral (gavage) 135 mg/kg/dose): +12%
- Tumor-Free-Surv/Total ([5]; oral (gavage) 135 mg/kg/dose): 0/5

Structure (SMILES): COc1nc(C(Cl)(Cl)Cl)c(Cl)c(OC(=O)CBr)c1Cl [DM-BA-PEN]
- T-C ([6]; IP 135 mg/kg/dose, Days 12-16): >41.0 days
- Tumor-Free-Surv/Total ([6]; IP 135 mg/kg/dose, Days 12-16): 2/5

Structure (SMILES): COc1nc(C(Cl)(Cl)Cl)c(Cl)c(OC(=O)CCl)c1Cl [DM-CA-PEN]
- T-C ([6]; IP 60 mg/kg/dose, Days 12-16): >41.0 days
- Tumor-Free-Surv/Total ([6]; IP 60 mg/kg/dose, Days 12-16): 3/5
- T-C [6, 8]: >41.0 days
- Tumor-Free-Surv/Total [6, 8]: 5/5
- Median % ILS (dying mice only) ([5]; oral (gavage) 135 mg/kg/dose): +84%
- Tumor-Free-Surv/Total ([5]; oral (gavage) 135 mg/kg/dose): 2/5

Structure (SMILES): COc1nc(C(Cl)(Cl)Cl)c(Cl)c(OC(=O)c2ccc(CCl)cc2)c1Cl [DM-CMB-PEN]
- Median % ILS (dying mice only) ([5]; IP 90 mg/kg/dose): +73%
- Tumor-Free-Surv/Total ([5]; IP 90 mg/kg/dose): 0/5

Structure (SMILES): COC(=O)CCC(=O)Oc1c(Cl)c(OC)nc(C(Cl)(Cl)Cl)c1Cl [DM-CMP-PEN]
- T-C ([6]; IP 135 mg/kg/dose, Days 11-15): >42.7 days
- Tumor-Free-Surv/Total ([6]; IP 135 mg/kg/dose, Days 11-15): 3/5
- T-C [6, 7]: >38.5 days
- Tumor-Free-Surv/Total [6, 7]: 2/5
- Median % ILS (dying mice only) ([5]; IP 90 mg/kg/dose): +87%
- Tumor-Free-Surv/Total ([5]; IP 90 mg/kg/dose): 1/5
- Median % ILS (dying mice only) ([5]; oral (gavage) 90 mg/kg/dose): +76%
- Tumor-Free-Surv/Total ([5]; oral (gavage) 90 mg/kg/dose): 1/5

Structure (SMILES): COc1nc(C(Cl)(Cl)Cl)c(Cl)c(OC(=O)C(Cl)Cl)c1Cl [DM-DCA-PEN]
- T-C ([6]; IP 135 mg/kg/dose, Days 12-16): >38.6 days
- Tumor-Free-Surv/Total ([6]; IP 135 mg/kg/dose, Days 12-16): 2/5
